Experimental data taken from the NIST ThermoML archive (doi:10.1016/j.jct.2016.03.008).

Experiment: mn = molality of the nth substance listed, in mol/kg
Settings: 101 kPa, Liquid; for viscosity: Capillary tube (Ostwald / Ubbelohde) method; for mass density: Vibrating tube method

O=c1cc[nH]c(=O)[nH]1 [2,4(1H,3H)-pyrimidinedione] + O
Settings	mass density, m1 = 0.005 [kg/m3]	mass density, m1 = 0.01 [kg/m3]	mass density, m1 = 0.015 [kg/m3]	mass density, m1 = 0.02 [kg/m3]	viscosity, m1 = 0.005 [mPa·s]	viscosity, m1 = 0.01 [mPa·s]	viscosity, m1 = 0.015 [mPa·s]	viscosity, m1 = 0.02 [mPa·s]
298.15 K	997.23	997.44	997.63	997.82	0.8929	0.8953	0.8977	0.9002
308.15 K	994.25	994.44	994.63	994.82	0.722	0.7232	0.7245	0.727
318.15 K	990.42	990.61	990.79	990.98	0.598	0.6004	0.6017	0.6041

C[N+](C)(C)CC(=O)O.[Cl-] [betaine hydrochloride] + O
Settings	mass density, 298.15 K [kg/m3]	mass density, 308.15 K [kg/m3]	mass density, 318.15 K [kg/m3]	viscosity, 298.15 K [mPa·s]	viscosity, 308.15 K [mPa·s]	viscosity, 318.15 K [mPa·s]
m1 = 0.006	997.26	994.25	990.47	0.8929	0.7208	0.598
m1 = 0.0134	997.52	994.51	990.73	0.8965	0.7244	0.6005
m1 = 0.0267	997.98	994.97	991.19	0.9009	0.7288	0.6054
m1 = 0.0401	998.43	995.42	991.65	0.9064	0.7331	0.6104
m1 = 0.0536	998.87	995.87	992.1	0.9124	0.7381	0.6153
m1 = 0.0671	999.31	996.31	992.54	0.9181	0.7427	0.62
